In paper PMC10388311, “Innovative Strategy toward Mutant CFTR Rescue in Cystic Fibrosis: Design and Synthesis of Thiadiazole Inhibitors of the E3 Ligase RNF5” (Journal of Medicinal Chemistry, 2023):

Test system: CFBE41o– cells
Assay: Apoptosis assay (Hoechst 33342 / propidium iodide, high-content imaging)
Format: cell-based, human
Method: We performed a preliminary evaluation of the effect of chronic treatment with selected analogues on the proliferation and apoptosis of CFBE41o^– cells (Figure 7). Indeed, RNF5 can modulate cell motility and proliferation by regulating paxillin ubiquitylation and thus its degradation.[53] For the proliferation assay, CFBE41o^– cells stably co-expressing F508del-CFTR and the HS-YFP were treated with test compounds (5 μM), VX-809 (1 μM), or vehicle alone (DMSO) for 48 h. Cell proliferation was then monitored by measuring the area covered by the cells based on the YFP signal. For the apoptosis assay, 24 h after plating, CFBE41o^– cells stably expressing F508del-CFTR were treated with test compounds (5, 20, and 100 μM), VX-809 (1 μM), MG132 (50 μM), or vehicle alone (DMSO) for 24 h. Cell nuclei were then counterstained with Hoechst 33342 and propidium iodide to visualize the total and apoptotic cell count, respectively, and imaged by using an Opera Phenix high-content screening system.
CFBE41o^– cells stably expressing F508del-CFTR and the HS-YFP were plated at a low density (5000 cell/well) on 96-well plates suitable for high-content imaging. […] Cell proliferation was monitored (by exploiting the YFP signal to determine the area covered by cells) for 48 h using the Opera Phenix (PerkinElmer) high-content screening system. […] Data are expressed as means ± SEM, n = 6. […]

## COc1cccc(Cn2c(C)ns/c2=N\C(=N\c2ccccc2)c2ccccc2)c1 [Compound 16, (E)-N-((Z)-4-(3-Methoxybenzyl)-3-methyl-1,2,4-thiadiazol-5(4H)-ylidene)-N′-phenylbenzimidamide]
  effect on cell proliferation and apoptosis (tolerability): good tolerability and no toxic side effects
